Test results reported in ChEMBL document CHEMBL4420061, “Compositions and methods of inhibiting retinal degeneration” (2013).
Calls of active or inactive are those of the source. The calls are words filed in the database; no cut-off is given here.

Key:
[1] = test system: Rattus norvegicus; test: (§1) Protection against light-induced retinal degeneration in Sprague-Dawley rat assessed as suppression of light-induced retinal function loss by measuring Rod-a and b-wave responses at 50 mg/kg, ip dosed 0.5 hrs before 6 hrs light exposure and measured 7 days after light-exposure by electroretinography; format: functional, organism-based
[2] = test system: Rattus norvegicus; test: Protection against light-induced retinal degeneration in Sprague-Dawley rat assessed as suppression of light-induced retinal structure loss at 50 mg/kg, ip dosed 0.5 hrs before 6 hrs light exposure and measured 7 days after light-exposure by electroretinography; format: functional, organism-based
[3] = test system: Rattus norvegicus; test: Protection against light-induced retinal degeneration in Sprague-Dawley rat assessed as suppression of light-induced retinal function loss by measuring Rod-a and b-wave responses at 50 mg/kg, ip dosed 0.5 hrs after 6 hrs light exposure and measured 7 days after light-exposure by electroretinography; format: functional, organism-based
[4] = test system: Rattus norvegicus; test: Protection against light-induced retinal degeneration in Sprague-Dawley rat assessed as suppression of light-induced retinal structure loss at 50 mg/kg, ip dosed 0.5 hrs after 6 hrs light exposure and measured 7 days after light-exposure by electroretinography; format: functional, organism-based
[5] = test system: Rattus norvegicus; test: as §1, with “preservation of cone function” for “Rod-a and b-wave responses”, “0.5 to 12” for “0.5”; format: functional, organism-based
[6] = test system: Rattus norvegicus; test: as §1, with “preservation of cone function” for “Rod-a and b-wave responses”, “16 to 24” for “0.5”; format: functional, organism-based
[7] = test system: Rattus norvegicus; test: Protection against light-induced retinal degeneration in Sprague-Dawley rat assessed as suppression of light-induced retinal function loss by measuring preservation of cone function at 50 mg/kg, ip dosed after 6 hrs light exposure and measured 7 days after light-exposure by electroretinography; format: functional, organism-based
[8] = biological target: T1, Retinoid isomerohydrolase (Rattus norvegicus) (UniProt O70276); test: Inhibition of RPE65 in rat RPE microsomes assessed as reduction in isomero-hydrolase activity by measuring 11-cis-retinol generation using all-trans-[3H]-retinol by HPLC analysis
T1 sequence (whole entry): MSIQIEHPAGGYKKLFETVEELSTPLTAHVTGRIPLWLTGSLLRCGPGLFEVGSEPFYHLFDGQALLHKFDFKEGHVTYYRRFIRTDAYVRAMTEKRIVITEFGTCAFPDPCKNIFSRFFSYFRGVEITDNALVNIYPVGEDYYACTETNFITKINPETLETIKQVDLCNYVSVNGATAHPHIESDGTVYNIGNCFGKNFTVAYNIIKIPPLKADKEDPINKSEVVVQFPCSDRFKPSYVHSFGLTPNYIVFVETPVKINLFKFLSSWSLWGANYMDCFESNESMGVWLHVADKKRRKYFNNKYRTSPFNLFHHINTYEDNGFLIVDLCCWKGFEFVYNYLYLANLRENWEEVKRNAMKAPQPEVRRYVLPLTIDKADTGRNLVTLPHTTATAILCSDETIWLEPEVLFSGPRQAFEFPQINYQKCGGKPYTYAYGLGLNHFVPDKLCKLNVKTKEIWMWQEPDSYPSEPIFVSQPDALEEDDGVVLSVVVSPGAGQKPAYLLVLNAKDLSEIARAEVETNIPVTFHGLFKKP

[9] = test system: Mus musculus; test: Inhibition of rhodopsin regeneration in completely light-adapted mouse BALB/c mouse assessed as rhodopsin recovery level by measuring effect on rhodopsin content at 5% dosed to eyes via eye drop before dark adaptation for 1 hr by spectrophotometry (reference value: 78.83%); format: functional; parameters: scale not given: the % may be the effect or the level left
[10] = test system: Rattus norvegicus; test: (§2) Inhibition of rhodopsin regeneration in overnight dark-adaptated Sprague-Dawley rat assessed as effect on rhodopsin recovery by measuring rhodopsin content at 50 mg/kg, ip followed by exposure to room light for 2 hrs and measured 2.5 hrs after photo-bleach by spectrophotometry; format: functional, organism-based
[11] = test system: Rattus norvegicus; test: Protection against light-induced retinal degeneration in overnight dark-adaptated Sprague-Dawley rat assessed as protection of retinal rod function by measuring effect on A-waves at 50 mg/kg, ip dosed 30 mins prior to exposure to 4 log cd.s/m2 test flash by electroretinography relative to control; format: functional
[12] = test system: Rattus norvegicus; test: Protection against light-induced retinal degeneration in Sprague-Dawley rat assessed as photoreceptor levels in central and superior retina at 50 mg/kg, ip dosed 0.5 hrs before 6 hrs light exposure relative to control; format: functional
[13] = test system: Mus musculus; test: Inhibition of rhodopsin regeneration in completely light-adapted mouse BALB/c mouse assessed as effect on rhodopsin content at 10% dosed to eyes via eye drop for 3 times at 6, 3 and 0 hrs before dark adaptation for 1 hr by spectrophotometry; format: functional, organism-based
[14] = test system: Rattus norvegicus; test: as §1, with “up to 12” for “0.5”; format: functional, organism-based
[15] = test system: Rattus norvegicus; test: Protection against light-induced retinal degeneration in Sprague-Dawley rat assessed as suppression of light-induced retinal structure loss at 50 mg/kg, ip dosed up to 12 hrs before 6 hrs light exposure and measured 7 days after light-exposure by electroretinography; format: functional, organism-based
[16] = test system: Rattus norvegicus; test: as §1, with “16 to 24” for “0.5”; format: functional, organism-based
[17] = test system: Rattus norvegicus; test: Protection against light-induced retinal degeneration in Sprague-Dawley rat assessed as suppression of light-induced retinal structure loss at 50 mg/kg, ip dosed 16 to 24 hrs before 6 hrs light exposure and measured 7 days after light-exposure by electroretinography; format: functional, organism-based
[18] = test system: Rattus norvegicus; test: Effect on cone function in Sprague-Dawley rat at 50 mg/kg, ip under steady rod-suppressing background illumination 60 mins post compound dosing by single- and flicker-flash ERG recordings based assay; format: functional, organism-based
[19] = test system: Rattus norvegicus; test: as §2, with “45 mins” for “2.5 hrs”, “spectrophotometry (reference value: 100%)” for “spectrophotometry”; format: functional; parameters: scale not given: the % may be the effect or the level left
[20] = test system: Rattus norvegicus; test: Inhibition of rhodopsin regeneration in overnight dark-adaptated Sprague-Dawley rat assessed as effect on rhodopsin recovery by measuring rhodopsin content at 50 mg/kg, ip followed by exposure to room light for 2 hrs and measured 3 hrs after photo-bleach by spectrophotometry (reference value: 100%); format: functional; parameters: scale not given: the % may be the effect or the level left
[21] = species on record: Mus musculus; test: Inhibition of retinal RDH activity in mouse retinal microsomes assessed as effect on NADPH-dependent reduction of all-trans-retinal; settings: Retina
[22] = biological target: T1, Retinoid isomerohydrolase (Rattus norvegicus); test: Inhibition of RPE65 in rat RPE microsomes assessed as reduction in isomero-hydrolase activity by measuring 11-cis-retinol generation at 1 mM using all-trans-[3H]-retinol by HPLC analysis
[23] = biological target: T2, Lecithin retinol acyltransferase (Rattus norvegicus) (UniProt Q9JI61); test: Inhibition of LRAT in rat RPE microsomes assessed as reduction in retinyl-ester at 1 mM using all-trans-[3H]-retinol by HPLC analysis
T2 sequence (whole entry): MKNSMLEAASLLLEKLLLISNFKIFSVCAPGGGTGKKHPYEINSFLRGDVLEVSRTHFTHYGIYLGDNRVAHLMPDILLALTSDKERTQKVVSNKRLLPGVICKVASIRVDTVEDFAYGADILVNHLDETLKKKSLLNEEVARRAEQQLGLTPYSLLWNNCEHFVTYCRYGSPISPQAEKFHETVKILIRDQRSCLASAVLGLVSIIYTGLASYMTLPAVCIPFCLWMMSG

[24] = test system: Mus musculus; test: Inhibition of rhodopsin regeneration in completely light-adapted mouse BALB/c mouse assessed as effect on rhodopsin content at 10% dosed to eyes via eye drop for 2 times at 3 and 0 hrs before dark adaptation for 1 hr by spectrophotometry; format: functional, organism-based
[25] = test system: Mus musculus; test: Inhibition of rhodopsin regeneration in completely light-adapted mouse BALB/c mouse assessed as effect on rhodopsin content at 10% dosed to eyes via eye drop followed by mouse moving to dark for 1 hr by spectrophotometry; format: functional, organism-based
[26] = Drug level in posterior eye cup of completely light-adapted mouse BALB/c mouse at 10% dosed to eyes via eye drop for 3 times at 6, 3 and 0 hrs before dark adaptation for 1 hr by mass spectrometry; format: ADME, organism-based; settings: in vivo, topical_or_ocular
[27] = test system: Mus musculus; test: Protection against light-induced retinal degeneration in BALB/c mouse assessed as suppression of light-induced retinal rod function loss at 10% topical application dosed 0.5 hrs before 6 hrs light exposure and measured 5 days after light-exposure by electroretinography; format: functional, organism-based
[28] = test system: Baboon; test: Inhibition of rhodopsin regeneration in anesthetized baboon assessed as rhodopsin regeneration by measuring rhodopsin content in eye at 10 mg/ml dosed as two drops for every 15 minutes for 1.75 hrs by spectrophotometry (reference value: 100%); format: functional, Papio; parameters: scale not given: the % may be the effect or the level left
[29] = Drug level in […] in anesthetized baboon assessed per mg wet weight at 10 mg/ml dosed as two drops for every 15 minutes for 1.75 hrs by mass spectrometry; format: ADME, organism-based, Papio; settings: in vivo, topical_or_ocular

Row | Structure (SMILES) | Activity [1] | Activity [2] | Activity [3] | Activity [4] | Activity [5] | Activity [6] | Activity [7] | inhibition [8] | inhibition [10] | Activity [12] | other results
1 | CC(C)(C)/[N+]([O-])=C/c1ccccc1S(=O)(=O)[O-].[Na+] | inactive | inactive | inactive | inactive | inactive | inactive | inactive | inactive | – | – | Activity [9]: 84.64%
2 | CC(C)(C)/[N+]([O-])=C/c1ccc(C(F)(F)F)cc1 | – | – | – | – | – | – | – | – | Active | Active | Activity [11]: 804%
3 | Cc1ccc(/C=[N+](\[O-])C(C)(C)C)cc1 | – | – | – | – | – | – | – | – | Active | Active | –
4 | CC(C)(C)/[N+]([O-])=C/c1ccccc1 | Active | Active | inactive | inactive | Active | inactive | inactive | Dose-dependent effect | Active | 90% | inhibition [13]: Active; Activity [14]: Active; Activity [15]: Active; Activity [16]: inactive; Activity [17]: inactive; Activity [18]: inactive; Activity [19]: 0%; Activity [20]: 0%; inhibition [21]: inactive; inhibition [22]: 100%; inhibition [23]: inactive; inhibition [24]: Active; inhibition [25]: Active; Drug uptake [26]: Active; Activity [27]: Active; Activity [28]: 26 - 36%; Drug uptake [29]: 23.5 to 24.2 ng
5 | CC(C)(C)/[N+]([O-])=C/c1ccc(F)cc1 | – | – | – | – | – | – | – | – | Active | Active | –
